The results in this text go back to patent publication US11981658B2, “Substituted aminopyridine compounds as EGFR inhibitors” (YUHAN CORPORATION, priority 2021, dated 2024).

Experiment [1] concerns the target EGFR Del19/T790M/C797S (Homo sapiens, UniProt P00533, C797S/DEL746-750/T790M). The experiment in a line: Biochemical EGFR kinase inhibition assay (Lance Ultra TR-FRET), triple mutant del19/T790M/C797S. The procedure, abridged: (§1)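 Step 1: compound in kinase buffer, 0.003–10 μM. Step 2: kinase reaction 1 h at room temperature. Step 4: TR-FRET read at 615/665 nm; IC50 calculated.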

In experiment [2] the target is EGFR L858R/T790M/C797S (Homo sapiens, UniProt P00533, C797S/L858R/T790M). Description: Biochemical EGFR kinase inhibition assay (Lance Ultra TR-FRET), triple mutant L858R/T790M/C797S. The procedure, abridged:
as §1

Experiment [3] deals with EGFR Del19/C797S (Homo sapiens, UniProt P00533, C797S/DEL746-750). Description: Biochemical EGFR kinase inhibition assay (Lance Ultra TR-FRET), double mutant del19/C797S. The procedure, abridged:
as §1
Background: In TR-FRET formats the signal depends on donor and acceptor labels being close together.

For experiment [4], the target named is EGFR L858R/C797S (Homo sapiens, UniProt P00533, C797S/L858R). Description: Biochemical EGFR kinase inhibition assay (Lance Ultra TR-FRET), double mutant L858R/C797S. The procedure, abridged: as §1
Experiment [5] deals with EGFR wildtype (WT) (Homo sapiens, UniProt P00533). Description: Biochemical EGFR kinase inhibition assay (Lance Ultra TR-FRET), wildtype. The procedure, abridged: as §1
EGFR wildtype (WT), sequence (P00533 25-1210): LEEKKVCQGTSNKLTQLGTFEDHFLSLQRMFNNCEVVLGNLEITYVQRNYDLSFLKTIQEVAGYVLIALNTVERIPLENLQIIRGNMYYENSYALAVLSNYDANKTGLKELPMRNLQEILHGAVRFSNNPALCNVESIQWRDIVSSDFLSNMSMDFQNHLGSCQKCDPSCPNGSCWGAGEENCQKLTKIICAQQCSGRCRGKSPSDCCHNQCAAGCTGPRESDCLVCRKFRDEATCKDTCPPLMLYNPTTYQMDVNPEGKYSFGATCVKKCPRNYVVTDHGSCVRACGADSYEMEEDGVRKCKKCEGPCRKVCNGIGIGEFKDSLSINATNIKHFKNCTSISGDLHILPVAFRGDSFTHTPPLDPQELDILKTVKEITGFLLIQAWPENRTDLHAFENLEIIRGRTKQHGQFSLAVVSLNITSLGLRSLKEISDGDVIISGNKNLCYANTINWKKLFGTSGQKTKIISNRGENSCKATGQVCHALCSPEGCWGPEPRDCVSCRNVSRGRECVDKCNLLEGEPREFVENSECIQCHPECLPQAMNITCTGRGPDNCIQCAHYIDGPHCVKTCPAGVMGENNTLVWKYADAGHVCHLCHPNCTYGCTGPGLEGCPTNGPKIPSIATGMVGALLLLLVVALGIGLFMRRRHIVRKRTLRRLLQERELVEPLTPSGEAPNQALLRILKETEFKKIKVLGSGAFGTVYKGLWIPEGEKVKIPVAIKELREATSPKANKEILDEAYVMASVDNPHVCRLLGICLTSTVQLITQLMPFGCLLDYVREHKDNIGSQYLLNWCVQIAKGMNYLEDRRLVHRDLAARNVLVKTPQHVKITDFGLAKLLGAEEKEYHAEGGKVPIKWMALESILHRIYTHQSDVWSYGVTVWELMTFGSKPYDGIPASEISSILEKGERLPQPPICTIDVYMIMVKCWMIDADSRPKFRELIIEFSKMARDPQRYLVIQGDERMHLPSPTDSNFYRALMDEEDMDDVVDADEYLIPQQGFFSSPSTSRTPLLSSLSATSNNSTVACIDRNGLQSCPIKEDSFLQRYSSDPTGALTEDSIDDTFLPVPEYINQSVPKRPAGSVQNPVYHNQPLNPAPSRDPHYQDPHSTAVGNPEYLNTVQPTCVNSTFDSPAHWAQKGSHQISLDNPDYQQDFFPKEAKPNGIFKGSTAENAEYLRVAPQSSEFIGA
The mark [6] stands for this setting: IC50 Del19/T790M/C797S (nM), 100 μM ATP.
Where [7] appears, read: Km ATP, read-out: IC50 Del19/T790M/C797S (nM) Km ATP.
Where [8] appears, read: IC50 L858R/T790M/C797S (nM), 100 μM ATP.
Where [9] appears, read: Km ATP, read-out: IC50 L858R/T790M/C797S (nM) Km ATP.
The mark [10] stands for this setting: IC50 Del19/C797S (nM), 100 μM ATP.
Where [11] appears, read: Km ATP, read-out: IC50 Del19/C797S (nM) Km ATP.
The mark [12] stands for this setting: IC50 L858R/C797S (nM), 100 μM ATP.
The mark [13] stands for this setting: Km ATP, read-out: IC50 L858R/C797S (nM) Km ATP.
The mark [14] stands for this setting: Km ATP, read-out: IC50 WT (nM) Km ATP.
Where [15] appears, read: Km ATP, read-out: IC50 Del19/T790M/C797S (nM), Km ATP.
[16] abbreviates: Km ATP, read-out: IC50 L858R/T790M/C797S (nM), Km ATP.
[17] abbreviates: ATP at Km, read-out: IC50 Del19/T790M/C797S (nM), Km ATP.
Setting [18] is: ATP at Km, read-out: IC50 L858R/T790M/C797S (nM), Km ATP.
The mark [19] stands for this setting: ATP at Km, read-out: IC50 Del19/C797S (nM), Km ATP.
Where [20] appears, read: ATP at Km, read-out: IC50 L858R/C797S (nM), Km ATP.
The mark [21] stands for this setting: ATP at Km, read-out: IC50 WT (nM), Km ATP.

Where two headings read alike, the source gives them in different places.

EGFR Del19/C797S, sequence (P00533 with tags, fused parts or gaps DEL746-750/C797S): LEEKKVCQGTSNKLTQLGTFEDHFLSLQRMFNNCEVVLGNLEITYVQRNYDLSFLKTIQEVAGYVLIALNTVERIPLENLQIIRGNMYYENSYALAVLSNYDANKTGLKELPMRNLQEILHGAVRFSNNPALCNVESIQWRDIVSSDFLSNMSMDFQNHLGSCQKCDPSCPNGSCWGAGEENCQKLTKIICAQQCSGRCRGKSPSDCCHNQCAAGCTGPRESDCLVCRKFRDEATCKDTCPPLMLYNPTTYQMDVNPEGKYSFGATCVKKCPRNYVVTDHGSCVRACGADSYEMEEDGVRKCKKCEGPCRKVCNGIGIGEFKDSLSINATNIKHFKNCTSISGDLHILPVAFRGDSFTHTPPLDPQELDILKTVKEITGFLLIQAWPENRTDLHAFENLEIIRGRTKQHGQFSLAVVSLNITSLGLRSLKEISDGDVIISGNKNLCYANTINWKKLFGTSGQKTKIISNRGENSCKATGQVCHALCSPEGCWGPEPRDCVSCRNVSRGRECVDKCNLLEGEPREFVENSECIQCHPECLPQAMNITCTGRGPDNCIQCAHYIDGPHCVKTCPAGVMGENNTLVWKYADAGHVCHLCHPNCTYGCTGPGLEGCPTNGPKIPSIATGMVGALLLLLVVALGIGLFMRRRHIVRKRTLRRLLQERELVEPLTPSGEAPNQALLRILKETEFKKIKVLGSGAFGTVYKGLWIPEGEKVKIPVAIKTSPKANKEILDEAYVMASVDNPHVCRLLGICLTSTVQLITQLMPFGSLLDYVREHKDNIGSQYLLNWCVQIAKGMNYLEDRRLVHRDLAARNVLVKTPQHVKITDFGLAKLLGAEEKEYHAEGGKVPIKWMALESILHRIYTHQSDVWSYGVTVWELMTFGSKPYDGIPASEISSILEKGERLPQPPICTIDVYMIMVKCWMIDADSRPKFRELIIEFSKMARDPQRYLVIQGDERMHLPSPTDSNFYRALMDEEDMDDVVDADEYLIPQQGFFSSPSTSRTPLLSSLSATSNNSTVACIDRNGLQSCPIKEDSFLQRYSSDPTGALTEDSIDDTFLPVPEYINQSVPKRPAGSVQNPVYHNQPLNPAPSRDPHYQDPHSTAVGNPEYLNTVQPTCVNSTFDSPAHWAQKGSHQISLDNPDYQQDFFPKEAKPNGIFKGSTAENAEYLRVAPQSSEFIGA
EGFR Del19/T790M/C797S, sequence (P00533 with tags, fused parts or gaps DEL746-750/T790M/C797S): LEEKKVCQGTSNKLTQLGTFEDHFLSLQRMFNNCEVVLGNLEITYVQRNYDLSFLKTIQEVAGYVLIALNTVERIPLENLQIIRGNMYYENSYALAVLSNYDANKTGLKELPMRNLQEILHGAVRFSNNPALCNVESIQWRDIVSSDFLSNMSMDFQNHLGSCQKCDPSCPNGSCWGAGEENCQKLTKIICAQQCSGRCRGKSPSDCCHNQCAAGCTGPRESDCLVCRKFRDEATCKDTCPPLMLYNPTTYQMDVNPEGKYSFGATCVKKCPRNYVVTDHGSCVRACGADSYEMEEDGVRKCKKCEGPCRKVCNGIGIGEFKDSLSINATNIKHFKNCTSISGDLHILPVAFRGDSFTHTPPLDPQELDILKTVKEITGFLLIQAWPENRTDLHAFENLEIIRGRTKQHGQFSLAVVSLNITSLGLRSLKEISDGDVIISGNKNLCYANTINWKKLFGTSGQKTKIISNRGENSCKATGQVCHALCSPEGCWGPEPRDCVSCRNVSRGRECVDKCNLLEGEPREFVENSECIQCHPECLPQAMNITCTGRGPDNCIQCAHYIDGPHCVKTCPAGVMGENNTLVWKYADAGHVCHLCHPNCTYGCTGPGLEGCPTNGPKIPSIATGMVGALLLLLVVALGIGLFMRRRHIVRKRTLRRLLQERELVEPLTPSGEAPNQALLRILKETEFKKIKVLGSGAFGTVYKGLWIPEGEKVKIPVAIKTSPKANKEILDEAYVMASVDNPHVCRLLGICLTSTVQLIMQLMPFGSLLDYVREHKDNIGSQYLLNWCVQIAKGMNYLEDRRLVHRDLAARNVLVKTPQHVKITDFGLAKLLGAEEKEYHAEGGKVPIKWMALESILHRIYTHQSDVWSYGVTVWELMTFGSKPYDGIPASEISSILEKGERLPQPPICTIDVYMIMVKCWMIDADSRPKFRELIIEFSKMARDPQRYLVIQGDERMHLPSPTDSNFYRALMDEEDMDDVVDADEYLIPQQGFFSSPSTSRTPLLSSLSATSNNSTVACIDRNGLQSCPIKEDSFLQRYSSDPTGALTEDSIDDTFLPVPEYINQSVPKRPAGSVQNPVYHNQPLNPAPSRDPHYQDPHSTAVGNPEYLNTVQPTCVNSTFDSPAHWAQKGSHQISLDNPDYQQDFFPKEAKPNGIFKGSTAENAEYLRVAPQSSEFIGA
EGFR L858R/T790M/C797S, sequence (P00533 25-1210 T790M/C797S/L858R): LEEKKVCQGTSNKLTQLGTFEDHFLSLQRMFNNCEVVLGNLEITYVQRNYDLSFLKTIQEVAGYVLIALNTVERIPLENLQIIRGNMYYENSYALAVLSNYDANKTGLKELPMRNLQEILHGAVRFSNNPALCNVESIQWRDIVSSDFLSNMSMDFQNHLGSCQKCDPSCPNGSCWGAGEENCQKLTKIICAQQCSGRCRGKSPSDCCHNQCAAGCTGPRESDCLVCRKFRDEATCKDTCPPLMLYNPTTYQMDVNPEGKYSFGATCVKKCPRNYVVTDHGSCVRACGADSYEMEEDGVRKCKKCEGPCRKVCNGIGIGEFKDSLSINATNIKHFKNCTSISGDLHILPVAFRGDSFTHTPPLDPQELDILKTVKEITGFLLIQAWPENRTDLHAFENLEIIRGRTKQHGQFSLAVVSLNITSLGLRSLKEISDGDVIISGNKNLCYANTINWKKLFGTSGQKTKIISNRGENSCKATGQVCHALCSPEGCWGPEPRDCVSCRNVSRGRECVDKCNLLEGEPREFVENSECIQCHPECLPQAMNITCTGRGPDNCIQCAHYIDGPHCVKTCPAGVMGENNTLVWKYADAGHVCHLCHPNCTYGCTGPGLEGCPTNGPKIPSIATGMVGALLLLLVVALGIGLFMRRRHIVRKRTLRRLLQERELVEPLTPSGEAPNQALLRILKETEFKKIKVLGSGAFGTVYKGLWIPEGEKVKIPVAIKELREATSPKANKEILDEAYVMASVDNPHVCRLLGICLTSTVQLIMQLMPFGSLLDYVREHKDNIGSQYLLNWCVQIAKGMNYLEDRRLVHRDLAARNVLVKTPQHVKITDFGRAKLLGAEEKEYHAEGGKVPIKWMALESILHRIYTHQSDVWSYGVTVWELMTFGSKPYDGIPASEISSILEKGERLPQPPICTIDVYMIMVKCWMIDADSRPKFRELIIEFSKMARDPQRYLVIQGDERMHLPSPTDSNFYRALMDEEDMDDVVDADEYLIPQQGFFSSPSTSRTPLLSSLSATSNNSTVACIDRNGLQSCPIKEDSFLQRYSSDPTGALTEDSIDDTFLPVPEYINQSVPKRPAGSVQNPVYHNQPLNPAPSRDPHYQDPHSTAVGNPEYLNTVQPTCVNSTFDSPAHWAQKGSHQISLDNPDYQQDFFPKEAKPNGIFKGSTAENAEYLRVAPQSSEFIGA

For the molecule `Cn1cc(C#Cc2cnc(Nc3ccnc(-c4cnn(S(=O)(=O)C5CC5)c4)n3)cc2N[C@H]2CC[C@@](C)(O)CC2)cn1` [Example 81, (1s,4s)-4-((2-((2-(1-(Cyclopropylsulfonyl)-1H-pyrazol-4-yl)pyrimidin-4-yl)amino)-5-((1-methyl-1H-pyrazol-4-yl)ethynyl)pyridin-4-yl)amino)-1-methylcyclohexan-1-ol], the IC50 in experiment [1] (setting [6]) came to 0.3 nM; in experiment [1] (setting [7]), 0.3 nM; in experiment [2] (setting [8]), 0.4 nM; in experiment [2] (setting [9]) it was 0.2 nM; in experiment [3] (setting [10]) it was 5.8 nM; in experiment [3] (setting [11]) it was 7.7 nM. Also, the IC50 was 79.1 nM in experiment [4] (setting [12]); 5.3 nM in experiment [4] (setting [13]); above 10000 nM in experiment [5] (IC50 WT (nM), 100 μM ATP); 61.6 nM in experiment [5] (setting [14]).
Turning to `O=S(=O)(C1CC1)n1cc(-c2nccc(Nc3cc(N[C@H]4CC[C@@H](O)CC4)c(C#CC4COC4)cn3)n2)cn1` [Example 353, (1s,4s)-4-((2-((2-(1-(Cyclopropylsulfonyl)-1H-pyrazol-4-yl)pyrimidin-4-yl)amino)-5-(oxetan-3-ylethynyl)pyridin-4-yl)amino)cyclohexan-1-ol], the IC50 in experiment [1] (setting [6]) was determined as 0.2 nM; in experiment [1] (setting [15]) it was 0.2 nM; in experiment [2] (setting [8]) it was 0.2 nM; in experiment [2] (setting [16]), 0.1 nM; in experiment [3] (setting [10]) it was 0.6 nM; in experiment [3] (Km ATP, read-out: IC50 Del19/C797S (nM), Km ATP), 1 nM. Moreover, the IC50 in experiment [4] (setting [12]) is 16.6 nM; in experiment [4] (Km ATP, read-out: IC50 L858R/C797S (nM), Km ATP), 3.3 nM; in experiment [5] (IC50 WT (nM), 100 μM ATP), above 10000 nM; in experiment [5] (Km ATP, read-out: IC50 WT (nM), Km ATP), 11.3 nM.
On to `CC1(CO)CCN(c2cc(Nc3ccnc(-c4cnn(S(=O)(=O)C5CC5)c4)n3)ncc2C#C[Si](C)(C)C)CC1` [Example 246, (1-(2-((2-(1-(Cyclopropylsulfonyl)-1H-pyrazol-4-yl)pyrimidin-4-yl)amino)-5-((trimethylsilyl)ethynyl)pyridin-4-yl)-4-methylpiperidin-4-yl)methanol], for which the IC50 is 7.4 nM in experiment [1] (setting [17]); 6.4 nM in experiment [1] (setting [6]); 3.8 nM in experiment [2] (setting [18]); 15.4 nM in experiment [2] (setting [8]); 34 nM in experiment [3] (setting [19]); 54.6 nM in experiment [3] (setting [10]). In addition, the IC50 is 105 nM in experiment [4] (setting [20]); 957 nM in experiment [4] (setting [12]); 258 nM in experiment [5] (setting [21]); above 10000 nM in experiment [5] (IC50 WT (nM), 100 μM ATP).
For `O=C(c1ccc(C#Cc2cnc(Nc3ccnc(-c4cnn(S(=O)(=O)C5CC5)c4)n3)cc2NC[C@H]2CC[C@H](CO)CC2)cc1)N1CCC(O)CC1` [Example 443, (4-((6-((2-(1-(Cyclopropylsulfonyl)-1H-pyrazol-4-yl)pyrimidin-4-yl)amino)-4-((((1 r,4r)-4-(hydroxymethyl)cyclohexyl)methyl)amino)pyridin-3-yl)ethynyl)phenyl)(4-hydroxypiperidin-1-yl)methanone], the IC50 in experiment [1] (setting [6]) turned out to be 7.7 nM; in experiment [1] (setting [15]) it was 4.3 nM; in experiment [2] (setting [8]), 4 nM; in experiment [2] (setting [16]), 1.2 nM; in experiment [3] (setting [10]) it was 53.5 nM; in experiment [4] (setting [12]), 4610 nM. For the same molecule, the IC50 in experiment [5] (IC50 WT (nM), 100 μM ATP) was above 10000 nM.
Turning to `Cn1cc(C#Cc2cnc(Nc3ccnc(-c4cnn(S(=O)(=O)C5CC5)c4)n3)cc2N2CCC(C(C)(C)O)CC2)cn1` [Example 11, 2-(1-(2-((2-(1-(Cyclopropylsulfonyl)-1H-pyrazol-4-yl)pyrimidin-4-yl)amino)-5-((1-methyl-1H-pyrazol-4-yl)ethynyl)pyridin-4-yl)piperidin-4-yl)propan-2-ol], the IC50 in experiment [1] (setting [6]) is 1.6 nM; in experiment [2] (setting [8]) it was 1.2 nM; in experiment [3] (setting [10]), 9.1 nM; in experiment [4] (setting [12]) it was 28.5 nM; in experiment [5] (IC50 WT (nM), 100 μM ATP), above 10000 nM.
Regarding `CN1CCC2(CC1)CCN(c1cc(Nc3ccnc(-c4cnn(S(=O)(=O)C5CC5)c4)n3)ncc1C#Cc1cnn(C(F)F)c1)CC2` [Example 321, 2-(1-(Cyclopropylsulfonyl)-1H-pyrazol-4-yl)-N-(5-((1-(difluoromethyl)-1H-pyrazol-4-yl)ethynyl)-4-(9-methyl-3,9-diazaspiro[5.5]undecan-3-yl)pyridin-2-yl)pyrimidin-4-amine], the IC50 in experiment [1] (setting [6]) worked out at 0.7 nM; in experiment [2] (setting [8]), 1.2 nM; in experiment [3] (setting [10]) it was 8 nM; in experiment [4] (setting [12]) it was 45.2 nM; in experiment [5] (IC50 WT (nM), 100 μM ATP) it was 5850 nM.
On to `CC(C)Nc1cc(Nc2ccnc(-c3cnn(S(=O)(=O)C4CC4)c3)n2)ncc1C#CCN1CCS(=O)(=O)CC1` [Example 201, 4-(3-(6-((2-(1-(Cyclopropylsulfonyl)-1H-pyrazol-4-yl)pyrimidin-4-yl)amino)-4-(isopropylamino)pyridin-3-yl)prop-2-yn-1-yl)thiomorpholine 1,1-dioxide], for which the IC50 came out at 1.7 nM in experiment [1] (setting [17]); 1.2 nM in experiment [2] (setting [18]); 36.7 nM in experiment [3] (setting [19]); 141 nM in experiment [4] (setting [20]); 292 nM in experiment [5] (setting [21]).
For `Cn1cc(C#Cc2cnc(Nc3ccnc(-c4cnn(S(=O)(=O)C5CC5)c4)n3)cc2N2CCCC(C(F)(F)F)C2)cn1` (centres unmarked) [Example 71, 2-(1-(Cyclopropylsulfonyl)-1H-pyrazol-4-yl)-N-(5-((1-methyl-1H-pyrazol-4-yl)ethynyl)-4-(3-(trifluoromethyl)piperidin-1-yl)pyridin-2-yl)pyrimidin-4-amine], the IC50 in experiment [1] (setting [6]) is 15.7 nM; in experiment [2] (setting [8]) it was 52.6 nM; in experiment [3] (setting [10]) it was 127 nM; in experiment [4] (setting [12]), 751 nM; in experiment [5] (IC50 WT (nM), 100 μM ATP), above 10000 nM.
`CN1CCC(n2cc(C#Cc3cnc(Nc4ccnc(-c5cnn(S(=O)(=O)C6CC6)c5)n4)cc3N3CCC(C)(CO)CC3)cn2)CC1` [Example 147, (1-(2-((2-(1-(Cyclopropylsulfonyl)-1H-pyrazol-4-yl)pyrimidin-4-yl)amino)-5-((1-(1-methylpiperidin-4-yl)-1H-pyrazol-4-yl)ethynyl)pyridin-4-yl)-4-methylpiperidin-4-yl)methanol]: the IC50 in experiment [1] (setting [6]) came out at 0.4 nM; in experiment [1] (setting [7]), 0.2 nM; in experiment [2] (setting [8]), 0.2 nM; in experiment [2] (setting [9]), 0.1 nM; in experiment [3] (setting [10]), 0.4 nM; in experiment [3] (setting [11]), 0.2 nM. The IC50 in experiment [4] (setting [12]) is 0.7 nM; in experiment [4] (setting [13]), 0.2 nM; in experiment [5] (IC50 WT (nM), 100 μM ATP), 43.3 nM; in experiment [5] (setting [14]), 0.4 nM.
For the molecule `CN(C)CCNC1CCN(c2cc(Nc3ccnc(-c4cnn(S(=O)(=O)C5CC5)c4)n3)ncc2C#Cc2ccn(C)n2)CC1` [Example 142, N^1-(1-(2-((2-(1-(Cyclopropylsulfonyl)-1H-pyrazol-4-yl)pyrimidin-4-yl)amino)-5-((1-methyl-1H-pyrazol-3-yl)ethynyl)pyridin-4-yl)piperidin-4-yl)-N^2,N^2-dimethylethane-1,2-diamine], the IC50 turned out to be 0.4 nM in experiment [1] (setting [6]); 0.4 nM in experiment [1] (setting [7]); 0.9 nM in experiment [2] (setting [8]); 0.2 nM in experiment [2] (setting [9]); 8.4 nM in experiment [3] (setting [10]); 5.9 nM in experiment [3] (setting [11]). Moreover, the IC50 was 176 nM in experiment [4] (setting [12]); 3.9 nM in experiment [4] (setting [13]); above 10000 nM in experiment [5] (IC50 WT (nM), 100 μM ATP); 31.3 nM in experiment [5] (setting [14]).
Take `O=C(c1ccc(C#Cc2cnc(Nc3ccnc(-c4cnn(S(=O)(=O)C5CC5)c4)n3)cc2N2CCC[C@H](O)C2)cc1)N1CCC(O)CC1` [Example 445, (S)-(4-((6-((2-(1-(Cyclopropylsulfonyl)-1H-pyrazol-4-yl)pyrimidin-4-yl)amino)-4-(3-hydroxypiperidin-1-yl)pyridin-3-yl)ethynyl)phenyl)(4-hydroxypiperidin-1-yl)methanone]: the IC50 is 0.9 nM in experiment [1] (setting [6]); 0.5 nM in experiment [1] (setting [15]); 0.4 nM in experiment [2] (setting [8]); 0.1 nM in experiment [2] (setting [16]); 2 nM in experiment [3] (setting [10]); 104 nM in experiment [4] (setting [12]). In experiment [5] (IC50 WT (nM), 100 μM ATP), this molecule gave an IC50 above 10000 nM.
With `CN(C)CC1(C)CCN(c2cc(Nc3ccnc(-c4cnn(S(=O)(=O)C5CC5)c4)n3)ncc2C#CC2CCN(C(=O)C(F)(F)F)C2)CC1` (centres unmarked) [Example 412, 1-(3-((6-((2-(1-(Cyclopropylsulfonyl)-1H-pyrazol-4-yl)pyrimidin-4-yl)amino)-4-(4-((dimethylamino)methyl)-4-methylpiperidin-1-yl)pyridin-3-yl)ethynyl)pyrrolidin-1-yl)-2,2,2-trifluoroethan-1-one], the IC50 was 0.3 nM in experiment [1] (setting [6]); 2.7 nM in experiment [2] (setting [8]); 3.3 nM in experiment [3] (setting [10]); 21.5 nM in experiment [4] (setting [12]); above 10000 nM in experiment [5] (IC50 WT (nM), 100 μM ATP).
